System: HCV pseudoparticles
Assay: HCV pseudoparticle infection assay (luciferase reporter, Huh7 cells)
Assay type: cell-based, HCV (genotype 1b E1 and E2 envelope)
Conditions: Hepatitis C virus, genotype 1b, Huh-7, 48 h, HCV pseudoparticles (genotype 1b), luciferase activity 2 days after infection

CN(C)CC1(C(=O)NS(=O)(=O)c2ccc(Nc3nc(NC4(c5ccc(Cl)cc5)CC4)nc(OCC(F)(F)F)n3)cc2)CC1 [Example 3006]
EC50: 2700 nM | EC50 (class): 1000 to 5000 nM

CC(C)(C)CNCC1(C(=O)NS(=O)(=O)c2ccc(Nc3nc(NC4(c5ccc(Cl)cc5)CC4)nc(OCC(F)(F)F)n3)cc2)CC1 [Example 3007]
EC50: 2800 nM | EC50 (class): 1000 to 5000 nM

O=C(CN1CCCC1=O)NCC1(C(=O)NS(=O)(=O)c2ccc(Nc3nc(NC4(c5ccc(Cl)cc5)CC4)nc(OCC(F)(F)F)n3)cc2)CC1 [Example 3008]
EC50: 976 nM | EC50 (class): 100 to 1000 nM

O=C(CCN1CCS(=O)(=O)CC1)NCC1(C(=O)NS(=O)(=O)c2ccc(Nc3nc(NC4(c5ccc(Cl)cc5)CC4)nc(OCC(F)(F)F)n3)cc2)CC1 [Example 3009]
EC50 (class): 1000 to 5000 nM

CC(=O)NS(=O)(=O)CCNC(=O)c1ccc(Nc2nc(NC3(c4ccc(Cl)cc4)CC3)nc(OCC(F)(F)F)n2)cc1 [Example 4000]
EC50 (class): 0.5 to 100 nM

CC(C)C(=O)NS(=O)(=O)CCNC(=O)c1ccc(Nc2nc(NC3(c4ccc(Cl)cc4)CC3)nc(OCC(F)(F)F)n2)cc1 [Example 4001]
EC50 (class): 0.5 to 100 nM

O=C(NCCS(=O)(=O)NC(=O)C1CC1)c1ccc(Nc2nc(NC3(c4ccc(Cl)cc4)CC3)nc(OCC(F)(F)F)n2)cc1 [Example 4002]
EC50 (class): 0.5 to 100 nM

CC(F)(F)CC(=O)NS(=O)(=O)CCNC(=O)c1ccc(Nc2nc(NC3(c4ccc(Cl)cc4)CC3)nc(OCC(F)(F)F)n2)cc1 [Example 4003]
EC50 (class): 0.5 to 100 nM

CC(C)(C)OC(=O)N1CCC[C@H]1C(=O)NS(=O)(=O)CCNC(=O)c1ccc(Nc2nc(NC3(c4ccc(Cl)cc4)CC3)nc(OCC(F)(F)F)n2)cc1 [Example 4004]
EC50: 2.6 nM | EC50 (class): 0.5 to 100 nM

CC(C)(C)OC(=O)N1CCC(C(=O)NS(=O)(=O)CCNC(=O)c2ccc(Nc3nc(NC4(c5ccc(Cl)cc5)CC4)nc(OCC(F)(F)F)n3)cc2)CC1 [Example 4005]
EC50 (class): 0.5 to 100 nM

CC(C)(C)OC(=O)N1C[C@@H](NC(=O)c2ccc(Nc3nc(NC4(c5ccc(Cl)cc5)CC4)nc(OCC(F)(F)F)n3)cc2)C[C@@H]1C(=O)NS(=O)(=O)C1CC1 [Example 5000]
EC50 (class): 0.5 to 100 nM

CC(C)(C)OC(=O)N1C[C@@H](NC(=O)c2ccc(Nc3nc(NC4(c5ccc(Cl)cc5)CC4)nc(OCC(F)(F)F)n3)cc2)C[C@@H]1C(=O)NC1(C(=O)NS(=O)(=O)C2CC2)CC1 [Example 5002]
EC50 (class): 0.5 to 100 nM

CC(C)S(=O)(=O)NC(=O)COc1ccc(C2(Nc3nc(Nc4ccc(C(=O)NCC5(CN6CCCC6)CC5)cc4)nc(OCC(F)(F)F)n3)CC2)cc1 [Example 6000, 4-(4-(1-(4-(2-(1-methylethylsulfonamido)-2-oxoethoxy)phenyl)cyclopropylamino)-6-(2,2,2-trifluoroethoxy)-1,3,5-triazin-2-ylamino)-N-((1-(pyrrolidin-1-ylmethyl)cyclopropyl)methyl)benzamide]
EC50 (class): 0.5 to 100 nM

O=C(NCC1(CN2CCCC2)CC1)c1ccc(Nc2nc(NC3(c4ccc(C(=O)NS(=O)(=O)C5CC5)cc4)CC3)nc(OCC(F)(F)F)n2)cc1 [Example 7001, N-(cyclopropylsulfonyl)-4-(1-(4-(4-((1-(pyrrolidin-1-ylmethyl)cyclopropyl)methylcarbamoyl)phenylamino)-6-(2,2,2-trifluoroethoxy)-1,3,5-triazin-2-ylamino)cyclopropyl)benzamide]
EC50 (class): 0.5 to 100 nM

O=C(NCC1(CN2CCCC2)CC1)c1ccc(Nc2nc(NC3(c4ccc(C(=O)NS(=O)(=O)C5CCC5)cc4)CC3)nc(OCC(F)(F)F)n2)cc1 [Example 7002]
EC50 (class): 0.5 to 100 nM

NC(=O)c1ccc(Nc2nc(N[C@]3(C(=O)NS(=O)(=O)C4CC4)C[C@H]3C3CC3)nc(OCC(F)(F)F)n2)cc1 [Example 8001]
EC50 (class): 1000 to 5000 nM

NC(=O)c1ccc(Nc2nc(NC3(C(=O)NS(=O)(=O)C4CC4)CC3)nc(OCC(F)(F)F)n2)cc1 [Example 8002]
EC50 (class): 1000 to 5000 nM

O=C(NS(=O)(=O)CCCN1CCCC1)c1ccc(Nc2nc(NC3(c4ccc(Cl)cc4)CC3)nc(N3CCCC3)n2)cc1 [Example 8003]
EC50 (class): 1000 to 5000 nM

CCC(=O)NS(=O)(=O)c1ccc(Nc2nc(NC3(c4ccc(Cl)cc4)CC3)nc(OCC(F)(F)F)n2)cc1 [Example 8004]
EC50: 2980 nM | EC50 (class): 1000 to 5000 nM

O=C(NS(=O)(=O)c1ccc(Nc2nc(NC3(c4ccc(Cl)cc4)CC3)nc(OCC(F)(F)F)n2)cc1)c1ccccc1 [Example 8005]
EC50 (class): 1000 to 5000 nM

O=C(NS(=O)(=O)c1ccc(Nc2nc(NC3(c4ccc(Cl)cc4)CC3)nc(OCC(F)(F)F)n2)cc1)C1CC1 [Example 8006]
EC50: 2990 nM | EC50 (class): 1000 to 5000 nM

CC(C)C(=O)NS(=O)(=O)c1ccc(Nc2nc(NC3(c4ccc(Cl)cc4)CC3)nc(OCC(F)(F)F)n2)cc1 [Example 8007]
EC50: 5400 nM | EC50 (class): 1000 to 5000 nM

COCC1(S(=O)(=O)N(C)C(=O)c2ccc(N(C)c3nc(NC4(c5ccc(Cl)cc5)CC4)nc(OC)n3)cc2)CC1 [Example 8008]
EC50 (class): 1000 to 5000 nM

COCC1(S(=O)(=O)N(C)C(=O)c2ccc(Nc3nc(OC)nc(N(C)C4(c5ccc(Cl)cc5)CC4)n3)cc2)CC1 [Example 8009]
EC50 (class): 1000 to 5000 nM

COCC1(S(=O)(=O)NC(=O)c2ccc(N(C)c3nc(OCC(F)(F)F)nc(N(C)C4(c5ccc(Cl)cc5)CC4)n3)cc2)CC1 [Example 8010]
EC50 (class): 1000 to 5000 nM

O=C(NS(=O)(=O)c1ccccc1)c1ccc(Nc2nc(NC3(c4ccc(Cl)cc4)CC3)nc(OCC(F)(F)F)n2)cc1 [Example 8011]
EC50 (class): 0.5 to 100 nM

Cc1ccccc1S(=O)(=O)NC(=O)c1ccc(Nc2nc(NC3(c4ccc(Cl)cc4)CC3)nc(OCC(F)(F)F)n2)cc1 [Example 8012]
EC50 (class): 0.5 to 100 nM

O=C(NS(=O)(=O)c1ccc(F)cc1)c1ccc(Nc2nc(NC3(c4ccc(Cl)cc4)CC3)nc(OCC(F)(F)F)n2)cc1 [Example 8013]
EC50 (class): 0.5 to 100 nM

O=C(NS(=O)(=O)C1(Cc2ccccc2)CC1)c1ccc(Nc2nc(NC3(c4ccc(Cl)cc4)CC3)nc(OCC(F)(F)F)n2)cc1 [Example 8014]
EC50: 12.7 nM | EC50 (class): 0.5 to 100 nM

O=C(NS(=O)(=O)C1(C(=O)Nc2ccccc2)CC1)c1ccc(Nc2nc(NC3(c4ccc(Cl)cc4)CC3)nc(OCC(F)(F)F)n2)cc1 [Example 8015]
EC50 (class): 0.5 to 100 nM

O=C(NS(=O)(=O)C1(Cc2ccccc2F)CC1)c1ccc(Nc2nc(NC3(c4ccc(Cl)cc4)CC3)nc(OCC(F)(F)F)n2)cc1 [Example 8016]
EC50 (class): 0.5 to 100 nM

O=C(NS(=O)(=O)C1CCCC1)c1ccc(Nc2nc(NC3(c4ccc(Cl)cc4)CC3)nc(OCC(F)(F)F)n2)cc1 [Example 8017]
EC50 (class): 0.5 to 100 nM

Cn1cnc(C[C@H](NC(=O)c2ccc(Nc3nc(NC4(c5ccc(Cl)cc5)CC4)nc(OCC(F)(F)F)n3)cc2)C(=O)NS(=O)(=O)C2CC2)c1 [Example 8018]
EC50 (class): 0.5 to 100 nM

Cn1cnc(C[C@H](NC(=O)c2ccc(Nc3nc(NC4(c5ccc(Cl)cc5)CC4)nc(OCC(F)(F)F)n3)cc2)C(=O)N[C@]2(C(=O)NS(=O)(=O)C3CC3)C[C@H]2C2CC2)c1 [Example 8019]
EC50 (class): 0.5 to 100 nM

Cn1cnc(C[C@H](NC(=O)c2ccc(Nc3nc(NC4(c5ccc(Cl)cc5)CC4)nc(OCC(F)(F)F)n3)cc2)C(=O)N[C@]2(C(=O)NS(=O)(=O)C3CCC3)C[C@H]2C2CC2)c1 [Example 8020]
EC50 (class): 0.5 to 100 nM

Cn1cnc(C[C@H](NC(=O)c2ccc(Nc3nc(NC4(c5ccc(Cl)cc5)CC4)nc(OCC(F)(F)F)n3)cc2)C(=O)N[C@]2(C(=O)NS(=O)(=O)C(C)(C)C)C[C@H]2C2CC2)c1 [Example 8021]
EC50 (class): 0.5 to 100 nM

CN(C)CC1(S(=O)(=O)NC(=O)c2ccc(Nc3nc(OCC(F)(F)F)nc(N4CCN(S(C)(=O)=O)CC4)n3)cc2)CC1 [Example 8022]
EC50 (class): 1000 to 5000 nM

CCS(=O)(=O)N1CCN(c2nc(Nc3ccc(C(=O)NS(=O)(=O)C4(CN(C)C)CC4)cc3)nc(OCC(F)(F)F)n2)CC1 [Example 8023]
EC50 (class): 1000 to 5000 nM

CC(=O)N1CCN(c2nc(Nc3ccc(C(=O)NS(=O)(=O)C4(CN(C)C)CC4)cc3)nc(OCC(F)(F)F)n2)CC1 [Example 8024]
EC50 (class): 1000 to 5000 nM

CN(C)CC1(S(=O)(=O)NC(=O)c2ccc(Nc3nc(OCC(F)(F)F)nc(N4CCN(S(=O)(=O)C5CC5)CC4)n3)cc2)CC1 [Example 8025]
EC50 (class): 1000 to 5000 nM

CC(C)S(=O)(=O)N1CCN(c2nc(Nc3ccc(C(=O)NS(=O)(=O)C4(CN(C)C)CC4)cc3)nc(OCC(F)(F)F)n2)CC1 [Example 8026]
EC50 (class): 1000 to 5000 nM

Cc1ccc(C(=O)N2CCN(c3nc(Nc4ccc(C(=O)NS(=O)(=O)C5(CN(C)C)CC5)cc4)nc(OCC(F)(F)F)n3)CC2)cc1 [Example 8027]
EC50 (class): 1000 to 5000 nM

CN(C)CC1(S(=O)(=O)NC(=O)c2ccc(Nc3nc(OCC(F)(F)F)nc(N4CCN(C(=O)OC(C)(C)C)CC4)n3)cc2)CC1 [Example 8028]
EC50: 17600 nM | EC50 (class): 1000 to 5000 nM

CN(C)CC1(S(=O)(=O)NC(=O)c2ccc(Nc3nc(OCC(F)(F)F)nc(N4CCN(C(=O)c5ccccc5F)CC4)n3)cc2)CC1 [Example 8029]
EC50 (class): 1000 to 5000 nM

CN(C)CC1(S(=O)(=O)NC(=O)c2ccc(Nc3nc(OCC(F)(F)F)nc(N4CCN(S(=O)(=O)c5ccccc5F)CC4)n3)cc2)CC1 [Example 8030]
EC50 (class): 1000 to 5000 nM

CN(C)CC1(S(=O)(=O)NC(=O)c2ccc(Nc3nc(OCC(F)(F)F)nc(N4CCN(S(=O)(=O)c5ccccc5)CC4)n3)cc2)CC1 [Example 8031]
EC50 (class): 1000 to 5000 nM

Cc1cccc(S(=O)(=O)N2CCN(c3nc(Nc4ccc(C(=O)NS(=O)(=O)C5(CN(C)C)CC5)cc4)nc(OCC(F)(F)F)n3)CC2)c1 [Example 8032]
EC50 (class): 1000 to 5000 nM

CN(C)CC1(S(=O)(=O)NC(=O)c2ccc(Nc3nc(OCC(F)(F)F)nc(N4CCN(S(=O)(=O)c5ccccc5Cl)CC4)n3)cc2)CC1 [Example 8033]
EC50: 36100 nM | EC50 (class): 1000 to 5000 nM

Cc1ccccc1S(=O)(=O)N1CCN(c2nc(Nc3ccc(C(=O)NS(=O)(=O)C4(CN(C)C)CC4)cc3)nc(OCC(F)(F)F)n2)CC1 [Example 8034]
EC50: 23000 nM | EC50 (class): 1000 to 5000 nM

COc1ccc(S(=O)(=O)N2CCN(c3nc(Nc4ccc(C(=O)NS(=O)(=O)C5(CN(C)C)CC5)cc4)nc(OCC(F)(F)F)n3)CC2)cc1 [Example 8035]
EC50 (class): 1000 to 5000 nM

CN(C)CC1(S(=O)(=O)NC(=O)c2ccc(Nc3nc(OCC(F)(F)F)nc(N4CCN(S(=O)(=O)c5cccc(F)c5)CC4)n3)cc2)CC1 [Example 8036]
EC50 (class): 1000 to 5000 nM

Cc1cccc(C(=O)N2CCN(c3nc(Nc4ccc(C(=O)NS(=O)(=O)C5(CN(C)C)CC5)cc4)nc(OCC(F)(F)F)n3)CC2)c1 [Example 8038]
EC50 (class): 1000 to 5000 nM
